Common to all, as to experiment: biochemical
Holding throughout (format): binding

For assay [1], the target named is T1, panel of 442 kinases (Homo sapiens, UniProt P53355).
T1 construct: purchased Ambit Biosciences (scanMAXX KINOMEscan)
Particulars: DAPK1; for remaining activity at 1 µM: read-out: % of control at 1 µM.

Assay [2] concerns the target T2, panel of 442 kinases (Homo sapiens, UniProt P27037).
T2 construct: purchased Ambit Biosciences (scanMAXX KINOMEscan)
Particulars: ACVR2A; for remaining activity at 1 µM: read-out: % of control at 1 µM.

The target in assay [3] is T3, panel of 442 kinases (Homo sapiens, UniProt P19784).
T3 construct: purchased Ambit Biosciences (scanMAXX KINOMEscan)
T3 sequence (P19784 whole entry): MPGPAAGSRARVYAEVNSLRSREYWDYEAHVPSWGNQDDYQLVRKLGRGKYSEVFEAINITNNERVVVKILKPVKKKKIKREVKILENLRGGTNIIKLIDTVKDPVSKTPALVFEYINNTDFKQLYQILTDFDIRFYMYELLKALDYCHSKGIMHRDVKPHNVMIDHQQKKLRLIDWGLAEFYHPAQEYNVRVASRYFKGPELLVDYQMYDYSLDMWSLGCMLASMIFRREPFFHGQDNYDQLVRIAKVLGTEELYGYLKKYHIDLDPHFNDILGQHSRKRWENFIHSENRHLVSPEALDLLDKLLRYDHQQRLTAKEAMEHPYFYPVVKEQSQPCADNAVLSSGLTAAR
Particulars: CSNK2A2; for remaining activity at 1 µM: read-out: % of control at 1 µM.

Assay [4] deals with T4, panel of 442 kinases (Homo sapiens, UniProt P09619).
T4 construct: purchased Ambit Biosciences (scanMAXX KINOMEscan)
T4 sequence (P09619 33-1106): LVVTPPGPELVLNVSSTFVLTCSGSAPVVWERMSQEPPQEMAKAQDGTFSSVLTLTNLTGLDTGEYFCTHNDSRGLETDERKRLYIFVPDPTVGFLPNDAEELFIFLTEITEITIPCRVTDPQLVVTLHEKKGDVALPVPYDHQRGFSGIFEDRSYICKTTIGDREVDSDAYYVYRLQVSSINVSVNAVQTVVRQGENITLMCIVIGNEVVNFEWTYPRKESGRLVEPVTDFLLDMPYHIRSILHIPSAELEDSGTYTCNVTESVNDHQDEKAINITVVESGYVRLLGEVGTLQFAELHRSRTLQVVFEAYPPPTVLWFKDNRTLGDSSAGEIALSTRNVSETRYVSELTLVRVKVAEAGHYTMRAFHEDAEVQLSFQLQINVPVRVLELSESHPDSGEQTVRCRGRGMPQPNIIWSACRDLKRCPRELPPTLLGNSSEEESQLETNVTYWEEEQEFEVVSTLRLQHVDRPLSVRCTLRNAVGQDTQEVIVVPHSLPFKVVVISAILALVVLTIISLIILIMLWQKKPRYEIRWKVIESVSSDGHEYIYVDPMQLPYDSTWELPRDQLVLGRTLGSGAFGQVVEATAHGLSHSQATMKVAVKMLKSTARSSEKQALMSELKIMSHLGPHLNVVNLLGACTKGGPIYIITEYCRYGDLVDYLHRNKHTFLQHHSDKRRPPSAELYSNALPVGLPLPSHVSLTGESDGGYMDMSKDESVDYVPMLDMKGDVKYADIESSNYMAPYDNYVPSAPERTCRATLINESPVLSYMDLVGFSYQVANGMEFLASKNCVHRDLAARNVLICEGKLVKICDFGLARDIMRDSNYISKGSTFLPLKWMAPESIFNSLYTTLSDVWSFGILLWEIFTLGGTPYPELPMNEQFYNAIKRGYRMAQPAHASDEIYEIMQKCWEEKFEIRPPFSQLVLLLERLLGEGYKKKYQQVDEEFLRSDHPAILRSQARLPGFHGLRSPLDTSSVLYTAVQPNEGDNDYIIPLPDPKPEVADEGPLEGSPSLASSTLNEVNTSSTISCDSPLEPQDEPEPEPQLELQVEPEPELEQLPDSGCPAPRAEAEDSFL
Particulars: kinase PDGFRB; for remaining activity at 1 µM: read-out: % of control at 1 µM.

The target in assay [5] is T5, panel of 442 kinases (Homo sapiens, UniProt P42681).
T5 construct: purchased Ambit Biosciences (scanMAXX KINOMEscan)
T5 sequence (P42681 1-527): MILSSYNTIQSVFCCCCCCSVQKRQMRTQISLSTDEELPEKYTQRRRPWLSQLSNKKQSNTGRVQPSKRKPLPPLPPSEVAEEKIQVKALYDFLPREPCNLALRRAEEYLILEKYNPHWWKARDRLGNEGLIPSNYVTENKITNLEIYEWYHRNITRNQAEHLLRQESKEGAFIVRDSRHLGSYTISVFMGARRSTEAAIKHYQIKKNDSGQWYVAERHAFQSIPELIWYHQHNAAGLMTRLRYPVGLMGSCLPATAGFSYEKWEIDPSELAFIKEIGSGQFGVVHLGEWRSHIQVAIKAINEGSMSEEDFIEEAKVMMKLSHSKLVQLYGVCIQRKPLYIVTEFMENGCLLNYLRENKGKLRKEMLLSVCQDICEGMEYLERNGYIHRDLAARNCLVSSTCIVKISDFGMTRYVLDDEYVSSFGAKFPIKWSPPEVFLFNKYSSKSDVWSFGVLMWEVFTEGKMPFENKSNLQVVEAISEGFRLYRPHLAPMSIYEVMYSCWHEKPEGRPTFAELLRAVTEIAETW
The following applies: kinase TXK; for remaining activity at 1 µM: read-out: TXK (% of control at 1 µM).

Assay [6] has as its target T6, panel of 442 kinases (Homo sapiens, UniProt Q9HCP0).
T6 construct: purchased Ambit Biosciences (scanMAXX KINOMEscan)
Particulars: CSNK1G1; for remaining activity at 1 µM: read-out: % of control at 1 µM.

In assay [7] the target is T7, panel of 442 kinases (Homo sapiens, UniProt O14578).
T7 construct: purchased Ambit Biosciences (scanMAXX KINOMEscan)
T7 sequence (O14578 whole entry): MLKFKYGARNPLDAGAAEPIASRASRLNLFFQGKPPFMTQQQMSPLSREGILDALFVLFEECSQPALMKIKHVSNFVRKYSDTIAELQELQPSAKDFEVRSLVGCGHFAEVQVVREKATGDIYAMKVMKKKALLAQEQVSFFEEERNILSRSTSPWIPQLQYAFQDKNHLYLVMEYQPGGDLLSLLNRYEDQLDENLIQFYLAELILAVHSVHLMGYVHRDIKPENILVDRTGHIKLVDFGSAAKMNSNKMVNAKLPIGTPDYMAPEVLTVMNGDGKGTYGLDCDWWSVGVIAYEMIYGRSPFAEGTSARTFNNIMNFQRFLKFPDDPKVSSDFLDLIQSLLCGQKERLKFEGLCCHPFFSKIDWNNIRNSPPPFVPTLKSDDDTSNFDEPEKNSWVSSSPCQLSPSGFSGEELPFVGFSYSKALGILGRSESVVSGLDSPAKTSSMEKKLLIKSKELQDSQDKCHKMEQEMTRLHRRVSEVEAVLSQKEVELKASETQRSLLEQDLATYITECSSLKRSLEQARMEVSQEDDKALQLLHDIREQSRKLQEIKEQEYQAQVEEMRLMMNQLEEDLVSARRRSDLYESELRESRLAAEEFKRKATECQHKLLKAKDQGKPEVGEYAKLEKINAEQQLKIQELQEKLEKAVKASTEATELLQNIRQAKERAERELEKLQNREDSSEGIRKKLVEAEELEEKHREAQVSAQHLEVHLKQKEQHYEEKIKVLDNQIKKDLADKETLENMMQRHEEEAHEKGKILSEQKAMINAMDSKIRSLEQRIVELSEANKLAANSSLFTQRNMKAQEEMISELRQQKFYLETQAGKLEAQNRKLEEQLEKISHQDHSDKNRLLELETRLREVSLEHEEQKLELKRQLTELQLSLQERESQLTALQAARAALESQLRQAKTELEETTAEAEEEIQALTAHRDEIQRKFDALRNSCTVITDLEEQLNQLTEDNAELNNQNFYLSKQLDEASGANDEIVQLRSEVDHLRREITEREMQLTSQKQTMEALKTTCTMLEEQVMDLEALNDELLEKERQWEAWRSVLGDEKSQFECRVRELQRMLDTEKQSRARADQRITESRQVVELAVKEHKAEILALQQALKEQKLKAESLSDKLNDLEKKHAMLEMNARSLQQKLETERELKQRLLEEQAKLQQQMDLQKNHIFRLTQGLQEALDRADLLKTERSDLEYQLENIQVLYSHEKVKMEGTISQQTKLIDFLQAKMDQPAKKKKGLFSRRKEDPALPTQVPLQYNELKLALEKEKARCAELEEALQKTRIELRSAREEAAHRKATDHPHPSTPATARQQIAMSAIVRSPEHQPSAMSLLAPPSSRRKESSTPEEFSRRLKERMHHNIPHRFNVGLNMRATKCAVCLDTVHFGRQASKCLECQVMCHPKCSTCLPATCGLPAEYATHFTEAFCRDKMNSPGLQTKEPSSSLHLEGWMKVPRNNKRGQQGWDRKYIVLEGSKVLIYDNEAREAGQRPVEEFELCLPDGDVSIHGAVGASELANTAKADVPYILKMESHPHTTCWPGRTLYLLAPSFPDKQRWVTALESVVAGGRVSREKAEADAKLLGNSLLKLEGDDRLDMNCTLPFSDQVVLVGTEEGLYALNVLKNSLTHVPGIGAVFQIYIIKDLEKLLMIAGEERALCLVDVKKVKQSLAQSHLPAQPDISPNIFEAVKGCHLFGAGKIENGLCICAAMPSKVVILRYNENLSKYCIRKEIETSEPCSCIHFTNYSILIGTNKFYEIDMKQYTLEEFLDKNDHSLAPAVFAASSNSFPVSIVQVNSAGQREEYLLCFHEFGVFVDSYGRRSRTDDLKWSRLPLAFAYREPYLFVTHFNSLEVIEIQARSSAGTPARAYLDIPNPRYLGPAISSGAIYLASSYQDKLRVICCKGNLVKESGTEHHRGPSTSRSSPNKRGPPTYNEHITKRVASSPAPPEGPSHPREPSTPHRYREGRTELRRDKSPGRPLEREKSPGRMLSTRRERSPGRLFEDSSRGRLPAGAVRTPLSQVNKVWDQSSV
Particulars: CIT; for remaining activity at 1 µM: read-out: % of control at 1 µM.

Assay [8] concerns the target T8, panel of 442 kinases (Homo sapiens, UniProt Q9NRP7).
T8 construct: purchased Ambit Biosciences (scanMAXX KINOMEscan)
T8 sequence (Q9NRP7 1-1315): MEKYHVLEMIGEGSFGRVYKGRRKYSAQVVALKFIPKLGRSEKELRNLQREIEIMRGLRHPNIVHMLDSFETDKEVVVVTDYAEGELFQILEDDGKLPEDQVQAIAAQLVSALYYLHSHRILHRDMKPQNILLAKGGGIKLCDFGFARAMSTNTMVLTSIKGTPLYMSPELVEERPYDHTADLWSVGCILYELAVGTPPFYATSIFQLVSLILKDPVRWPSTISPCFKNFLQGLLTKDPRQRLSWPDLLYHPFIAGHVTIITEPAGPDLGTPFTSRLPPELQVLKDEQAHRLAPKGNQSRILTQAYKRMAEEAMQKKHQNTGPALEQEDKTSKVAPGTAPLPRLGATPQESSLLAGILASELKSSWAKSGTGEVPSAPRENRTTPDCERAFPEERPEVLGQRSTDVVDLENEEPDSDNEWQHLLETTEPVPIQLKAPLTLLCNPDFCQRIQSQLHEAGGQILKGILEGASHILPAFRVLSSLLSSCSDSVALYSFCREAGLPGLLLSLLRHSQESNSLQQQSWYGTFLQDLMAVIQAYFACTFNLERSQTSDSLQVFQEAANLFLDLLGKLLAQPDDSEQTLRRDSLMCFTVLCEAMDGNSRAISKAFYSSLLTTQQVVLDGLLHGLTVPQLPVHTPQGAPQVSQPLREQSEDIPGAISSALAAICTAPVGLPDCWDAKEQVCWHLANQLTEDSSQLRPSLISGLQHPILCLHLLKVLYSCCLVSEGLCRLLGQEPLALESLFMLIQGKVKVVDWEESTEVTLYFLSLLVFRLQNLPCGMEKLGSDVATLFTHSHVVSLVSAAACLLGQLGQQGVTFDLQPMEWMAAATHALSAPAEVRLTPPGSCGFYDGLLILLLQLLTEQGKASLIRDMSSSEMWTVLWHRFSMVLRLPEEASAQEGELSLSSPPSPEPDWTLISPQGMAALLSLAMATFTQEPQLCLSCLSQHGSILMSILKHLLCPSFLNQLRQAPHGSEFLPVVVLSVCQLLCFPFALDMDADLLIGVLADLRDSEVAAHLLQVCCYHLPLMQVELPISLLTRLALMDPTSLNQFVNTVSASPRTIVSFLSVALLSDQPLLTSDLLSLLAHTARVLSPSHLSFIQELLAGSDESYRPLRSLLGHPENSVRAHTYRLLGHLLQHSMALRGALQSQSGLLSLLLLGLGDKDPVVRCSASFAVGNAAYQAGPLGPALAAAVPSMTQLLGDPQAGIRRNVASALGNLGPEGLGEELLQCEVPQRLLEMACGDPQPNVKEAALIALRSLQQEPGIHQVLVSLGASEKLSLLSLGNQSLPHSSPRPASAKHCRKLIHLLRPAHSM
Particulars: kinase STK36; for remaining activity at 1 µM: read-out: STK36 (% of control at 1 µM).

Assay [9] addresses T9, panel of 442 kinases (Homo sapiens, UniProt Q9P286).
T9 construct: purchased Ambit Biosciences (scanMAXX KINOMEscan)
Particulars: kinase PAK7; for remaining activity at 1 µM: read-out: % of control at 1 µM.

Assay [10] addresses T10, panel of 442 kinases (Homo sapiens, UniProt Q9UQB9).
T10 construct: purchased Ambit Biosciences (scanMAXX KINOMEscan)
T10 sequence (Q9UQB9 1-309): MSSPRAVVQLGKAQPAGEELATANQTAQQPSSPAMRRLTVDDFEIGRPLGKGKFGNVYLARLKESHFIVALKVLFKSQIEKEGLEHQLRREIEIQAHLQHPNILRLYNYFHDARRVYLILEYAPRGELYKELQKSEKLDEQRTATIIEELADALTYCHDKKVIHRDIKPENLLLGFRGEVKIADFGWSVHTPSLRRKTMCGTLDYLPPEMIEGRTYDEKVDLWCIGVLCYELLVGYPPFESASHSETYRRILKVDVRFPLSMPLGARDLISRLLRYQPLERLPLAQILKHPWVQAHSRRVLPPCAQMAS
The following applies: AURKC; for remaining activity at 1 µM: read-out: % of control at 1 µM.

The mark [11] stands for this setting: 10 µM, read-out: % of control at 10 µM.

T2 sequence (P27037 20-513): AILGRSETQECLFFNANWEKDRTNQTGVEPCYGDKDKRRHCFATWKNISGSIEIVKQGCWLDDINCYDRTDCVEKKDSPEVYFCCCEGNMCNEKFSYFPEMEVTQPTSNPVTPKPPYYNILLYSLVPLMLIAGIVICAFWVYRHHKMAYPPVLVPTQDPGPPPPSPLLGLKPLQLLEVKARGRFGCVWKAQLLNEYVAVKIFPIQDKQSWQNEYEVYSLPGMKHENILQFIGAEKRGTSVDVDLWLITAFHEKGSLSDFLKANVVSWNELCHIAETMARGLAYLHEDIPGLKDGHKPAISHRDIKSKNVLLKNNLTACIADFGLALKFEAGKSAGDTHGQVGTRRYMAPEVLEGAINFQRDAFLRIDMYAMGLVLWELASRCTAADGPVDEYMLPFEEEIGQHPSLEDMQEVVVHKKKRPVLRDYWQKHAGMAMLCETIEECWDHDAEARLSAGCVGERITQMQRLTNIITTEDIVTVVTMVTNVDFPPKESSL
T9 sequence (Q9P286 whole entry): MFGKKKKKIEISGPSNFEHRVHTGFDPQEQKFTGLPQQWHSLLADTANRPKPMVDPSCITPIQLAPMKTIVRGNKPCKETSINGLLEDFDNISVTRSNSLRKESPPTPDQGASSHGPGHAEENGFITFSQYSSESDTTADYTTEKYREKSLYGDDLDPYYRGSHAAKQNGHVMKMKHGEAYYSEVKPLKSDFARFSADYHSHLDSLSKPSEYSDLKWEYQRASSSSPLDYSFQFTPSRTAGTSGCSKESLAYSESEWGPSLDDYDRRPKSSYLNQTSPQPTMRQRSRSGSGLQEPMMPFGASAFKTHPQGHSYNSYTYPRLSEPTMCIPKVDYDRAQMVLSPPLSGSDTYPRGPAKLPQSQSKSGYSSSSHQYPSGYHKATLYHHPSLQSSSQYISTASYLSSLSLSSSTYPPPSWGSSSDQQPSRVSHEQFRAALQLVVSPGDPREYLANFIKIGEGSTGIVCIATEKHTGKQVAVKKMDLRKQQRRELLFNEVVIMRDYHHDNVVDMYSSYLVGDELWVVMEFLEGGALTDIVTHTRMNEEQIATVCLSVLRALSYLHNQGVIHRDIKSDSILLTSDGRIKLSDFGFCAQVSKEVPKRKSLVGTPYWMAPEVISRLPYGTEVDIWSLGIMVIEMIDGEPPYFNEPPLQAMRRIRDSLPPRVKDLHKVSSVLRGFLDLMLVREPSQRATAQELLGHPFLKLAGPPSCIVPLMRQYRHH
T6 sequence (Q9HCP0 whole entry): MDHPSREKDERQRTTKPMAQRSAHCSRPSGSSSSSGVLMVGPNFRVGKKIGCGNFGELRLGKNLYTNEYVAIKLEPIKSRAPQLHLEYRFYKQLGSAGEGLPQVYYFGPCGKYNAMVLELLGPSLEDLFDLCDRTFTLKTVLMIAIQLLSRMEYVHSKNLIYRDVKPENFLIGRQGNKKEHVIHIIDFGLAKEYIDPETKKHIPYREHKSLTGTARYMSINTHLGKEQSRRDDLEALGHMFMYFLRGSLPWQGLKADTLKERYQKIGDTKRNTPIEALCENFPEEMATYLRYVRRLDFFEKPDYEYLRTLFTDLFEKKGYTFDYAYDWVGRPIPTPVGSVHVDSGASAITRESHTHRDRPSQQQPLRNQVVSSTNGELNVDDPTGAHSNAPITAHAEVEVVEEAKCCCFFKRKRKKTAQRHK

Turning to `COc1ncc(-c2ccc3nccc(-c4ccnnc4)c3c2)cc1NS(=O)(=O)c1ccc(F)cc1F` [Omipalisib], the remaining activity at 1 µM is 93% at panel of 442 kinases [1]; 100% at panel of 442 kinases [2]; 75% on panel of 442 kinases [3]; 96% at panel of 442 kinases [4]; 82% on panel of 442 kinases [5]; 100% on panel of 442 kinases [6]. Moreover, the remaining activity at 1 µM came out at 100% at panel of 442 kinases [7], 85% on panel of 442 kinases [8], 100% at panel of 442 kinases [9] and 100% on panel of 442 kinases [10].

Consider `Cn1c(=O)n(-c2ccc(C(C)(C)C#N)cc2)c2c3cc(-c4cnc5ccccc5c4)ccc3ncc21` [Dactolisib, 2-methyl-2-[4-(3-methyl-2-oxo-8-quinolin-3-yl-2,3-dihydroimidazo[4,5-c]quinolin-1-yl)-phenyl] propionitrile], for which the remaining activity at 1 µM at panel of 442 kinases [1] amounted to 76%; on panel of 442 kinases [2], 89%; on panel of 442 kinases [3] it was 99%; at panel of 442 kinases [5] it was 100%; on panel of 442 kinases [6] it was 67%; on panel of 442 kinases [7] it was 65%. Further, the remaining activity at 1 µM worked out at 89% on panel of 442 kinases [8], 73% at panel of 442 kinases [9] and 87% on panel of 442 kinases [10].

Consider `Nc1cc(C(F)(F)F)c(-c2cc(N3CCOCC3)nc(N3CCOCC3)n2)cn1` [Buparlisib], for which the remaining activity at 1 µM on panel of 442 kinases [1] was 93%; at panel of 442 kinases [2], 100%; on panel of 442 kinases [3] it was 84%; at panel of 442 kinases [4], 100%; at panel of 442 kinases [5], 98%; at panel of 442 kinases [6], 95%. For the same compound, the remaining activity at 1 µM was 100% on panel of 442 kinases [7], 100% on panel of 442 kinases [8], 78% on panel of 442 kinases [9] and 100% at panel of 442 kinases [10]. In addition, the remaining activity at 10 µM at panel of 442 kinases [1] (setting [11]) is 77%; on panel of 442 kinases [2] (setting [11]) it was 100%; at panel of 442 kinases [3] (setting [11]) it was 75%; on panel of 442 kinases [4] (setting [11]) it was 97%; on panel of 442 kinases [5] (10 µM, read-out: TXK (% of control at 10 µM)) it was 89%; on panel of 442 kinases [6] (setting [11]) it was 95%. Also, the remaining activity at 10 µM on panel of 442 kinases [7] (setting [11]) came to 100%; at panel of 442 kinases [8] (10 µM, read-out: STK36 (% of control at 10 µM)), 100%; on panel of 442 kinases [9] (setting [11]), 69%; on panel of 442 kinases [10] (setting [11]), 91%.

Consider `FC(F)c1nc2ccccc2n1-c1nc(N2CCOCC2)nc(N2CCOCC2)n1` [ZSTK474, 2-(difluoromethyl)-1-[4,6-di(4-morpholinyl)-1,3,5-triazin-2-yl]-1H-benzimidazole], for which the remaining activity at 1 µM on panel of 442 kinases [1] was found to be 86%; at panel of 442 kinases [2], 100%; at panel of 442 kinases [3], 88%; at panel of 442 kinases [4], 100%; at panel of 442 kinases [5], 83%; at panel of 442 kinases [6], 81%. The remaining activity at 1 µM on panel of 442 kinases [7] was 100%; at panel of 442 kinases [8], 95%; on panel of 442 kinases [9], 100%; on panel of 442 kinases [10], 96%.

The values above are taken from paper PMC5564600 (Oncotarget, 2017).
